The values that follow come from US9303057B2, “Methods and reagents for analyzing riboswitches using FRET” (CORNELL UNIVERSITY, priority 2011, dated 2016).

Assay [1] has as its system SAM-II riboswitch. Description: smFRET imaging of pseudoknot formation of surface-immobilized Cy3/Cy5-labeled riboswitch. Format: binding, Sargasso Sea metagenome. The procedure: To reveal the underlying dynamics of SAM-II pseudoknot formation, single-molecule FRET (smFRET) (Aleman 2008; Lemay 2006; Brenner 2010) investigations were performed using the same labeling strategy as in Example 2 (i.e., A14^Cy3U and G52^Cy5U). To enable surface immobilization of the SAM-II riboswitch within a passivated microfluidic device and extended observation periods, a 5′-biotin moiety was included in the design (FIG. 2, FIG. 3).
smFRET data were acquired using a prism-based total internal reflection (TIR) microscope, where the biotinylated SAM-II riboswitch was surface immobilized within PEG-passivated, strepatividin-coated quartz microfluidic devices (Munro 2007). The Cy3 fluorophore was directly illuminated under 1.5 kW/cm^2 intensity at 532 nm (Laser Quantum). Photons emitted from both Cy3 and Cy5 were collected using a 1.2 NA 60× Plan-APO water-immersion objective (Nikon), where optical treatments were used to spatially separate Cy3 and Cy5 frequencies onto two, synchronized EMCCD devices (Evolve 512, Photometrics). Fluorescence data were acquired using MetaMorph acquisition software (Universal Imaging Corporation) at a rate of 66.7 frames per second (15 ms integration). Fluorescence trajectories were selected from the movie files for analysis using automated image analysis software coded in Matlab (The MathWorks). Fluorescence trajectories were selected based on the following criteria: a single catastrophic photobleaching event, at least 6:1 signal-to-background noise ratio (SNR) calculated from the total fluorescence intensity, and a FRET lifetime of at least 30 frames (450 ms) in any FRET state ≧0.15. smFRET trajectories were calculated from the acquired fluorescence data using the formula FRET=ICy5/(ICy3+ICy5), where ICy3 and ICy5 represent the Cy3 and Cy5 fluorescence intensities, respectively. Equilibrium smFRET experiments were performed in 50 mM KMOPS, 100 mM KCl, pH 7.5 buffer in the presence of an optimized oxygen scavenging and triplet state quenching cocktail in the presence of an oxygen scavenging environment (1 unit protocatchuate-3,4-dioxygenase, 2 mM protocatechuic acid; 1 mM Trolox, 1 mM cyclooctatetraene, 1 mM nitrobenzyl-alcohol) (Dave 2009). Concentrations of MgCl2 and SAM were as specified in the figure captions. […]
As previously described, the emission intensities of both Cy3 and Cy5 fluorophores were tracked simultaneously for individual surface-immobilized molecules using a wide-field, prism-based total internal reflection configuration, with a single-frequency light source (532 nm) (Munro 2007). […] The dynamic behaviors of individual molecules were assessed using hidden Markov modeling (HMM) procedures, and ensemble information was obtained by assembling single-molecule FRET trajectories into population FRET histograms. […]

The subject of assay [2] is SAM-II riboswitch. Description: Bulk FRET detection of pseudoknot formation (steady-state fluorescence of Cy3/Cy5-labeled riboswitch). Format: binding, Sargasso Sea metagenome. The procedure:
FIG. 2 illustrates the construction of a Cy3/Cy5-labeled SAM-II construct sensitive to pseudoknot formation. (a) The strategy for synthesis, labeling and enzymatic ligation is shown, with the chemical structures of fluorophores and linkers provided in FIG. 3. (b) Anion-exchange (AE) HPLC trace of enzymatic ligation using T4 DNA ligase and a DNA splint at the start (0 h) and after completion (9 h). The product (retention time=37.3 min) was purified by AE-HPLC. (c) LC-ESI mass spectrum of purified ligation product. (d) Fluorescence emission response of the acceptor dye in the Cy5/Cy3 labeled SAM-II construct upon consecutive Mg^2+ and SAM addition under conditions where cRNA=0.5 μM, cSAM=5.0 μM, cmg=2.0 mM, 50 mM KMOPS, 100 mM KCl, 20° C., pH 7.5; λex=540 nm, λem=665 nm.
All experiments were measured on a Cary Eclipse spectrometer (Varian, Palo Alto, USA) equipped with a peltier block, a magnetic stirring device, and a RX2000 stopped-flow apparatus (Applied Photophysics Ltd., Leatherhead, UK).
Based on the reported structure of the SAM-II riboswitch (Gilbert 2008), an acceptor (Cy5) fluorophore was attached to the non-conserved nucleoside at position 14, and a donor (Cy3) fluorophore at the unpaired terminal residue at position 52 (FIG. 1a). […]

Structures are written as SMILES.

`[Cl-].[Cl-].[Mg+2]` [Mg^2+]: in assay [1] (2 mM Mg2+, no SAM), the “increase of the absolute value of the low-FRET state” value is 0.08 and the “stabilization of the high-FRET state” value is “approximately 10 fold”.
For `C[S+](CC[C@H](N)C(=O)O)C[C@H]1O[C@@H](n2cnc3c(N)ncnc32)[C@H](O)[C@@H]1O` (stereo partly drawn) [SAM, S-adenosylmethionine], the “observed rate of increase of acceptor fluorescence emission (single exponential)” value in assay [2] (6 equivalents of SAM, Cy3/Cy5-labeled riboswitch, cRNA=0.5 μM, 2.0 mM Mg2+, 20° C., pH 7.5) is given as 1.19±0.06×10^−2 s^−1. In assay [2] (addition of 10 equivalents of SAM), the “fluorescence emission from the acceptor fluorophore achieved via FRET” value is on record as “dramatically increase in intensity”. Besides, in assay [1] (2 mM Mg2+ and 10 μM SAM), the “average dwell time in the high-FRET state” value is “approximately one” and the “stabilization of the high-FRET state” value is roughly 10 fold.
